Eight compounds from PubChem BioAssay AID512 can be followed below.

The structures appear in SMILES notation.

Sequence of Carbonyl reductase [NADPH] 3 (Homo sapiens) (O75828 whole entry, looked up): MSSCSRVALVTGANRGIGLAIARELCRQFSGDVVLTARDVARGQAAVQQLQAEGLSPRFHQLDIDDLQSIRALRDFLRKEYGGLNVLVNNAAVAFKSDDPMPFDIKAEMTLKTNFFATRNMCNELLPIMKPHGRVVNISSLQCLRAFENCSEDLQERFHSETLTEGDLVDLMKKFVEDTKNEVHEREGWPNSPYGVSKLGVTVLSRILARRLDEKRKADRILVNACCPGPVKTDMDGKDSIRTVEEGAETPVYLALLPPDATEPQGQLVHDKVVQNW

The first assay addresses Carbonyl reductase [NADPH] 3 (Homo sapiens) (UniProt O75828). As to the kind of experiment: CBR3 binders by thermal stabilization, biophysical, DSF, SYPRO orange, recombinant protein (AID 512). As to conditions: at 10 µM, buffer 10 mM HEPES, pH 7.5, NaCl 150 mM, NADP 100 µM, protein 2 µM, stronger effect = higher value.
In the case of `Brc1ccc(-c2[nH]c(-c3c[nH]c4ccccc34)nc2-c2ccccc2)cc1`, the Tm shift is 2.1 Celsius. On the same count and under the same terms, as for `Cc1ccc2c(c1)=C(c1[nH]c(=S)[nH]c1O)C(=O)N=2`, the figure is 2.4 Celsius. In the case of `COc1cc(/C=C/C(=O)CC(=O)/C=C/c2ccc(O)c(OC)c2)ccc1O`, the Tm shift was 3.1 Celsius.

Still in this assay, the particulars now being: at 10 µM, buffer 10 mM HEPES, pH 7.5, NaCl 150 mM, protein 2 µM, stronger effect = higher value.
Turning to `O=C1C(=O)C(c2ccc(O)cc2O)Oc2cc(O)cc(O)c21` (centres undefined), the Tm shift was 2.2 Celsius. `CCN(CC)C(=S)SSC(=S)N(CC)CC`: the Tm shift is 2.5 Celsius. For `O=C1C(=O)C(c2ccc(O)cc2)Oc2cc(O)cc(O)c21` (centres undefined), the Tm shift is 2.1 Celsius.

On to `O=c1oc2cc(O)ccc2c2oc3cc(O)ccc3c12`, for which the Tm shift was 3.1 Celsius. Take `NC(=O)c1ccc[n+](C2OC(COP(=O)(O)OP(=O)(O)OCC3OC(n4cnc5c(N)ncnc54)C(OP(=O)(O)O)C3O)C(O)C2O)c1` (centres undefined): the Tm shift is 4.4 Celsius.

The same assay, now with this note: measured here: second experiment Tm shift, at 10 µM, run 2, buffer 10 mM HEPES, pH 7.5, NaCl 150 mM, NADP 100 µM, protein 2 µM, stronger effect = higher value.
Take `COc1cc(/C=C/C(=O)CC(=O)/C=C/c2ccc(O)c(OC)c2)ccc1O`: the Tm shift stood at 2.4 Celsius.
